We go through five compounds from PMC3693772, “Protein expression, biochemical pharmacology of signal transduction, and relation to intraocular pressure modulation by bradykinin B2 receptors in ciliary muscle” (Molecular Vision, 2013).

The target in one assay is T1, human cloned B2 receptor (Homo sapiens, UniProt P30411).
T1 construct: purchased Euroscreen, Gosselies, Belgium; host or cells: CHO cells (recombinant, CHO-B2), used as cell homogenates/membranes
T1 sequence (P30411 1-391): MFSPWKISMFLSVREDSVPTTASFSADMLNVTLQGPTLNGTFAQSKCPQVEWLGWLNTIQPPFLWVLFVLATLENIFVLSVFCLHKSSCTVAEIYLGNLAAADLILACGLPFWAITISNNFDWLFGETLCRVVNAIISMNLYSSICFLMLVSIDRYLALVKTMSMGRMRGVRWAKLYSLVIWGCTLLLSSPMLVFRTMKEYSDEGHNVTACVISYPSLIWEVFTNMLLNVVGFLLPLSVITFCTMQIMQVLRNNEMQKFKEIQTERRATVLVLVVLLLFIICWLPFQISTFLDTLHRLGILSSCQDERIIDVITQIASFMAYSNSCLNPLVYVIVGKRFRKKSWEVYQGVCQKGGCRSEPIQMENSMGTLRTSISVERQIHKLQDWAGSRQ
As to the kind of experiment: [^3H]-BK binding to human cloned B2 receptor (CHO-B2 membranes). The settings on record: 0.2 nM [^3H]-BK, CHO-B2 homogenates 2.5 µg protein, 60 min, 23 °C, 50 mM Tris/HCl pH 7.4; mean±SEM, up to 19 experiments; read-out: Ligand binding inhibition constant at human cloned B2 receptors (Ki). How it is done: However, in view of the difficulty of obtaining sufficient h-CM cells for these initial studies, we decided to use cell membranes of Chinese hamster ovary cells containing the human cloned B2 receptor (CHO-B2; Euroscreen, Gosselies, Belgium). […] Following this incubation, the samples were filtered rapidly under vacuum through glass fiber filters (PerkinElmer) presoaked with 0.3% polyethyleneimine and rinsed several times with an ice-cold 50 mM Tris-HCl buffer using a 96-sample cell harvester (TomTec; Gaithersburg, MD). The filters were air-dried and the radioactivity counted in a beta-scintillation counter (TopCount, PerkinElmer). Data were analyzed using a sigmoidal-fit, iterative algorithm of a computer program designed to automatically fit the new data (Activity base; IDBS, Surrey, UK).

The test system of the next assay is COX-1 and COX-2. Particulars: ref [43]; cited from earlier work.
In assay [1] the test system is CHO-B2 cells (human cloned B2 receptor). Type of assay: cell-based, Chinese hamster ovary cells. Particulars: compound on its own.
Procedure: (§1) Measurement of prostaglandins in human ciliary muscle and Chinese hamster ovary cells expressing B2 receptors
(§2) This involved stimulating h-CM cells and CHO-B2 cells with various concentrations of test peptides and measuring the release of various PGs in the extracellular medium. The concentration-dependent effects of these peptides on total PGs, and specifically PGE2, PGF2α, and PGD2 release, were studied. Cells were grown as a monolayer in a 24-well plate (precoated with fibronectin) to confluence and subsequently serum-starved overnight before the experiment. On the day of the experiment, just before the drug was added, the wells were aspirated completely, and 990 µl basal medium and 10 µl 100× series of concentrations of the different peptide agonists were added to achieve the desired final concentrations of each compound (e.g., 0.1 nM to 10 µM). […] At the end of the incubation period, the cellular supernatants were collected and stored at −80 °C or used immediately to determine the PG content. Cell supernatants were tested for total PG levels and sub-species of PGs (PGE2, PGF2α, and PGD2) using specific competitive enzyme immunoassays (Cayman Chemical Co., Ann Arbor, MI) as directed in the manufacturer’s recommended protocols using the supplied standards and reagents. The limits of detection for various PGs were as follows: total PGs=29 pg/ml; PGE2=15 pg/ml; PGF2α=9 pg/ml; PGD2=200 pg/ml.
The subject of a further assay is primary h-CM cells. Type of assay: cell-based, human. Particulars: for Effect on background level of total PGs, h-CM cells: alone, up to 100 nM, single experiment; for Effect on total PGs induced by 1 µM BK, h-CM cells: pretreatment, challenge with 1 µM BK.

Usually Ki stands for the equilibrium dissociation constant of an inhibitor or competing ligand from its target.

Square brackets hold non-standard residues; d marks the D form. Peptide text beside a SMILES is read from it. * marks the point of attachment. X1 = COc1ccc(C[C@@H](CN[C@@H](CCCNC(=N)N)C(=O)O)N*)cc1; Hyp = O=C(O)[C@@H]1C[C@@H](O)CN1; 2Thi = N[C@@H](Cc1cccs1)C(=O)O

Procedure for primary h-CM cells: as §1, §2

For the compound `NCCCC[C@H](N)C(=O)N[C@@H](CCCN=C(N)N)C(=O)N1CCC[C@H]1C(=O)N1CCC[C@H]1C(=O)NCC(=O)N[C@@H](Cc1ccccc1)C(=O)N[C@@H](CO)C(=O)N1CCC[C@H]1C(=O)N[C@@H](Cc1ccccc1)C(=O)N[C@@H](CCCN=C(N)N)C(=O)O` [Lys-BK], on human cloned B2 receptor, the inhibition constant (Ki) stood at 1.8 ± 0.7 nM.

In the case of `CSCC[C@H](N)C(=O)N[C@@H](CCCCN)C(=O)N[C@@H](CCCNC(=N)N)C(=O)N1CCC[C@H]1C(=O)N1CCC[C@H]1C(=O)NCC(=O)N[C@@H](Cc1ccccc1)C(=O)N[C@@H](CO)C(=O)N1CCC[C@H]1C(=O)N[C@@H](Cc1ccccc1)C(=O)N[C@@H](CCCNC(=N)N)C(=O)O` [Met-Lys-BK], at human cloned B2 receptor, the Ki is 73 ± 24.7 nM.

For the compound `COc1ccc(C[C@@H](CN[C@@H](CCCNC(=N)N)C(=O)O)NC(=O)[C@@H]2CCCN2C(=O)[C@H](CO)NC(=O)[C@H](Cc2cccs2)NC(=O)CNC(=O)[C@@H]2C[C@@H](O)CN2C(=O)[C@@H]2CCCN2C(=O)[C@@H](N)CCCNC(=N)N)cc1` [RMP-7] (H-RP[Hyp]G[2Thi]SP-X1), the Ki at human cloned B2 receptor stood at 11.3 ± 1.1 nM.

As to `Nc1c(CC(=O)O)cccc1C(=O)c1ccc(Br)cc1` [bromfenac], in the assay with COX-1 and COX-2, the “COX-1/COX-2 inhibition selectivity” value is recorded as “COX-2-selective”. Moreover, the “PG production/release by compound alone, CHO-B2 cells” value in assay [1] is “failed to influence PG production”. Moreover, in the assay on primary h-CM cells (1 µM final, preincubated 5 min, three experiments), the “Effect on BK concentration-response of PG release, h-CM cells” value is “completely abolished PG synthesis and release”. For the same compound, in the assay on primary h-CM cells, the “Effect on background level of total PGs, h-CM cells” value was “inhibited the background level of total PGs”. Further, in the assay on primary h-CM cells (three experiments), the “Effect on total PGs induced by 1 µM BK, h-CM cells” value was “concentration-dependent reduction in total PGs synthesized and secreted”.

With `CC(C(=O)O)c1ccc(-c2ccccc2)c(F)c1` (stereo not drawn) [flurbiprofen], in the assay with COX-1 and COX-2, the “COX-1/COX-2 inhibition selectivity” value is “equally blocks COX-1 and COX-2”. The “PG production/release by compound alone, CHO-B2 cells” value in assay [1] was “failed to influence PG production”. For the same compound, in the assay with primary h-CM cells, the “Effect on background level of total PGs, h-CM cells” value is given as “inhibited the background level of total PGs”. In addition, in the assay on primary h-CM cells (three experiments), the “Effect on total PGs induced by 1 µM BK, h-CM cells” value was “concentration-dependent reduction in total PGs synthesized and secreted, with flurbiprofen much more potent than bromfenac”.
